{
  "source": "patent US20250361271A1",
  "about": "“PEPTIDE AGONIST” (THE UNIVERSITY OF BIRMINGHAM, priority 2022, published 2025)",
  "note": "Where a SMILES comes first, the peptide text is derived from it. [ ]: non-standard residue; d: D form. pGlu = O=C1CC[C@@H](C(=O)O)N1; Aib = CC(C)(N)C(=O)O",
  "data": [
    {"system": "not listed separately", "assay": "T1/2 in plasma (mouse)", "type": "in vitro ADME", "conditions": "mouse, plasma; 1 μM peptide, 37° C.", "description": "Take all measurements in duplicate.", "units": {"half-life": "min"}, "values": [
      {"compound": "CC(=O)N[C@@H](CO)C(=O)N[C@H](C(=O)N[C@H](C(N)=O)[C@@H](C)O)C(C)C", "note": "[SEQ ID NO. 5, Ac-SVT-NH2] (Ac-Ser-Val-Thr-NH2)", "half-life": 119},
      {"compound": "CC(C)[C@H](NC(=O)[C@@H](N)[C@@H](C)O)C(=O)N[C@H](C(N)=O)[C@@H](C)O", "note": "[SEQ ID NO. 8, H-TVT-NH2] (H-Thr-Val-Thr-NH2)", "half-life": 17},
      {"compound": "CC(C)[C@H](NC(=O)[C@@H](N)CO)C(=O)N[C@@H](CO)C(N)=O", "note": "[SEQ ID NO. 9, H-SVS-NH2] (H-Ser-Val-Ser-NH2)", "half-life": 103},
      {"compound": "CC(C)C[C@H](NC(=O)[C@@H](N)CO)C(=O)N[C@H](C(N)=O)[C@@H](C)O", "note": "[SEQ ID NO. 15, H-SLT-NH2] (H-Ser-Leu-Thr-NH2)", "half-life": 7},
      {"compound": "C[C@@H](O)[C@H](NC(=O)[C@H](Cc1ccc(O)cc1)NC(=O)[C@@H](N)CO)C(N)=O", "note": "[SEQ ID NO. 18, H-SYT-NH2] (H-Ser-Tyr-Thr-NH2)", "half-life": 17},
      {"compound": "CCNC(=O)[C@H](C)NC(=O)CNC(=O)[C@@H]1CCC(=O)N1", "note": "[SEQ ID NO. 22, pEGA-NH-Ethyl] ([pGlu]-Gly-Ala-NHEt)", "half-life": "> 180"}
    ]},
    {"system": "PBLs on cytokine stimulated HDBECs", "assay": "not given", "conditions": "0.3 nM peptide; inhibition of PBL transmigration (as a percentage of adherent cells)", "units": {"% Inhibition (0.3 nM)": "%"}, "values": [
      {"compound": "CC(C)[C@H](NC(=O)[C@@H](N)[C@@H](C)O)C(=O)N[C@H](C(N)=O)[C@@H](C)O", "note": "[SEQ ID NO. 8, H-TVT-NH2] (H-Thr-Val-Thr-NH2)", "% Inhibition (0.3 nM)": 45.47},
      {"compound": "CC(C)[C@H](NC(=O)[C@@H](N)CO)C(=O)N[C@@H](CO)C(N)=O", "note": "[SEQ ID NO. 9, H-SVS-NH2] (H-Ser-Val-Ser-NH2)", "% Inhibition (0.3 nM)": 42.51},
      {"compound": "COC[C@H](N)C(=O)N[C@H](C(=O)N[C@H](C(N)=O)[C@@H](C)O)C(C)C", "note": "[SEQ ID NO. 12, H-S(OMe)VT-NH2] (H-Ser(Me)-Val-Thr-NH2)", "% Inhibition (0.3 nM)": 34.72},
      {"compound": "CCCCCCNC(=O)[C@@H](NC(=O)[C@@H](NC(=O)[C@@H](N)CO)C(C)C)[C@@H](C)O", "note": "[SEQ ID NO. 13, H-SVT-NH-Hexyl]", "% Inhibition (0.3 nM)": 23.56},
      {"compound": "CC[C@H](C)[C@H](NC(=O)[C@@H](N)CO)C(=O)N[C@H](C(N)=O)[C@@H](C)O", "note": "[SEQ ID NO. 14, H-SIT-NH2] (H-Ser-Ile-Thr-NH2)", "% Inhibition (0.3 nM)": 3.40},
      {"compound": "CC(C)C[C@H](NC(=O)[C@@H](N)CO)C(=O)N[C@H](C(N)=O)[C@@H](C)O", "note": "[SEQ ID NO. 15, H-SLT-NH2] (H-Ser-Leu-Thr-NH2)", "% Inhibition (0.3 nM)": 46.00},
      {"compound": "C[C@@H](O)[C@H](NC(=O)[C@H](Cc1ccccc1)NC(=O)[C@@H](N)CO)C(N)=O", "note": "[SEQ ID NO. 16, H-SFT-NH2] (H-Ser-Phe-Thr-NH2)", "% Inhibition (0.3 nM)": 39.78},
      {"compound": "C[C@@H](O)[C@H](NC(=O)[C@H](Cc1ccc(O)cc1)NC(=O)[C@@H](N)CO)C(N)=O", "note": "[SEQ ID NO. 18, H-SYT-NH2] (H-Ser-Tyr-Thr-NH2)", "% Inhibition (0.3 nM)": 39.18},
      {"compound": "CCNC(=O)[C@H](C)NC(=O)CNC(=O)[C@@H]1CCC(=O)N1", "note": "[SEQ ID NO. 22, pEGA-NH-Ethyl] ([pGlu]-Gly-Ala-NHEt)", "% Inhibition (0.3 nM)": 35.40},
      {"compound": "CCNC(=O)[C@H](C)NC(=O)CNC(=O)[C@H](CCC(N)=O)NC(C)=O", "note": "[SEQ ID NO. 24, Ac-QGA-NH-Ethyl] (Ac-Gln-Gly-Ala-NHEt)", "% Inhibition (0.3 nM)": 50.00},
      {"compound": "CC(=O)N[C@@H](CCC(N)=O)C(=O)NCC(=O)NC(C)(C)C(=O)O", "note": "[SEQ ID NO. 25, Ac-QGAib] (Ac-Gln-Gly-[Aib]-OH)", "% Inhibition (0.3 nM)": 32.00},
      {"compound": "CC(C)C[C@H](NC(=O)CNC(=O)[C@@H]1CCC(=O)N1)C(N)=O", "note": "[SEQ ID NO. 32, pEGL-NH2] ([pGlu]-Gly-Leu-NH2)", "% Inhibition (0.3 nM)": 25.34},
      {"compound": "H-S*V*T*-NH2 [SEQ ID NO. 10]", "% Inhibition (0.3 nM)": 24.76},
      {"compound": "H-S*VT-NH2 [SEQ ID NO. 7]", "% Inhibition (0.3 nM)": 9.50}
    ]},
    {"system": "PBLs on cytokine stimulated HDBECs", "assay": "not given", "conditions": "3 nM peptide; inhibition of PBL transmigration (as a percentage of adherent cells)", "units": {"% Inhibition (3 nM)": "%"}, "values": [
      {"compound": "CC(=O)N[C@@H](CO)C(=O)N[C@H](C(=O)N[C@H](C(=O)O)[C@@H](C)O)C(C)C", "note": "[SEQ ID NO. 3, Ac-SVT] (Ac-Ser-Val-Thr-OH)", "% Inhibition (3 nM)": 36.80},
      {"compound": "CC(=O)N[C@@H](CO)C(=O)N[C@H](C(=O)N[C@H](C(N)=O)[C@@H](C)O)C(C)C", "note": "[SEQ ID NO. 5, Ac-SVT-NH2] (Ac-Ser-Val-Thr-NH2)", "% Inhibition (3 nM)": 42.50},
      {"compound": "CC(C)[C@H](NC(=O)[C@@H](N)[C@@H](C)O)C(=O)N[C@H](C(N)=O)[C@@H](C)O", "note": "[SEQ ID NO. 8, H-TVT-NH2] (H-Thr-Val-Thr-NH2)", "% Inhibition (3 nM)": 48.19},
      {"compound": "CC(C)[C@H](NC(=O)[C@@H](N)CO)C(=O)N[C@@H](CO)C(N)=O", "note": "[SEQ ID NO. 9, H-SVS-NH2] (H-Ser-Val-Ser-NH2)", "% Inhibition (3 nM)": 38.10},
      {"compound": "COC[C@H](N)C(=O)N[C@H](C(=O)N[C@H](C(N)=O)[C@@H](C)O)C(C)C", "note": "[SEQ ID NO. 12, H-S(OMe)VT-NH2] (H-Ser(Me)-Val-Thr-NH2)", "% Inhibition (3 nM)": 62.27},
      {"compound": "CCCCCCNC(=O)[C@@H](NC(=O)[C@@H](NC(=O)[C@@H](N)CO)C(C)C)[C@@H](C)O", "note": "[SEQ ID NO. 13, H-SVT-NH-Hexyl]", "% Inhibition (3 nM)": 12.83},
      {"compound": "CC[C@H](C)[C@H](NC(=O)[C@@H](N)CO)C(=O)N[C@H](C(N)=O)[C@@H](C)O", "note": "[SEQ ID NO. 14, H-SIT-NH2] (H-Ser-Ile-Thr-NH2)", "% Inhibition (3 nM)": 28.23},
      {"compound": "CC(C)C[C@H](NC(=O)[C@@H](N)CO)C(=O)N[C@H](C(N)=O)[C@@H](C)O", "note": "[SEQ ID NO. 15, H-SLT-NH2] (H-Ser-Leu-Thr-NH2)", "% Inhibition (3 nM)": 20.75},
      {"compound": "C[C@@H](O)[C@H](NC(=O)[C@H](Cc1ccccc1)NC(=O)[C@@H](N)CO)C(N)=O", "note": "[SEQ ID NO. 16, H-SFT-NH2] (H-Ser-Phe-Thr-NH2)", "% Inhibition (3 nM)": 33.33},
      {"compound": "C[C@@H](O)[C@H](NC(=O)[C@H](Cc1ccc(O)cc1)NC(=O)[C@@H](N)CO)C(N)=O", "note": "[SEQ ID NO. 18, H-SYT-NH2] (H-Ser-Tyr-Thr-NH2)", "% Inhibition (3 nM)": 42.83},
      {"compound": "CC(C)C[C@H](NC(=O)CNC(=O)[C@@H]1CCC(=O)N1)C(N)=O", "note": "[SEQ ID NO. 32, pEGL-NH2] ([pGlu]-Gly-Leu-NH2)", "% Inhibition (3 nM)": 58.16},
      {"compound": "H-S*V*T*-NH2 [SEQ ID NO. 10]", "% Inhibition (3 nM)": 39.51}
    ]},
    {"system": "PBLs on cytokine stimulated HDBECs", "assay": "not given", "conditions": "PBL0 37%; FIG. 4", "units": {"PBL transmigration": "%"}, "values": [
      {"compound": "SVTQAA [SEQ ID NO. 40]", "PBL transmigration": 23}
    ]},
    {"system": "PBLs on cytokine stimulated HDBECs", "assay": "not given", "conditions": "PEPITEM 41.90", "values": [
      {"compound": "CC(=O)N[C@@H](CO)C(=O)N[C@H](C(=O)N[C@H](C(N)=O)[C@@H](C)O)C(C)C", "note": "[SEQ ID NO. 5, Ac-SVT-NH2] (Ac-Ser-Val-Thr-NH2)", "effectiveness in inhibiting PBL transmigration compared with PEPITEM (% Inhibition at 0.3 and/or 3 nM)": "more effective"},
      {"compound": "CC(C)[C@H](NC(=O)[C@@H](N)[C@@H](C)O)C(=O)N[C@H](C(N)=O)[C@@H](C)O", "note": "[SEQ ID NO. 8, H-TVT-NH2] (H-Thr-Val-Thr-NH2)", "effectiveness in inhibiting PBL transmigration compared with PEPITEM (% Inhibition at 0.3 and/or 3 nM)": "more effective"},
      {"compound": "CC(C)[C@H](NC(=O)[C@@H](N)CO)C(=O)N[C@@H](CO)C(N)=O", "note": "[SEQ ID NO. 9, H-SVS-NH2] (H-Ser-Val-Ser-NH2)", "effectiveness in inhibiting PBL transmigration compared with PEPITEM (% Inhibition at 0.3 and/or 3 nM)": "more effective"},
      {"compound": "COC[C@H](N)C(=O)N[C@H](C(=O)N[C@H](C(N)=O)[C@@H](C)O)C(C)C", "note": "[SEQ ID NO. 12, H-S(OMe)VT-NH2] (H-Ser(Me)-Val-Thr-NH2)", "effectiveness in inhibiting PBL transmigration compared with PEPITEM (% Inhibition at 0.3 and/or 3 nM)": "more effective"},
      {"compound": "CC(C)C[C@H](NC(=O)[C@@H](N)CO)C(=O)N[C@H](C(N)=O)[C@@H](C)O", "note": "[SEQ ID NO. 15, H-SLT-NH2] (H-Ser-Leu-Thr-NH2)", "effectiveness in inhibiting PBL transmigration compared with PEPITEM (% Inhibition at 0.3 and/or 3 nM)": "more effective"},
      {"compound": "C[C@@H](O)[C@H](NC(=O)[C@H](Cc1ccc(O)cc1)NC(=O)[C@@H](N)CO)C(N)=O", "note": "[SEQ ID NO. 18, H-SYT-NH2] (H-Ser-Tyr-Thr-NH2)", "effectiveness in inhibiting PBL transmigration compared with PEPITEM (% Inhibition at 0.3 and/or 3 nM)": "more effective"},
      {"compound": "CCNC(=O)[C@H](C)NC(=O)CNC(=O)[C@H](CCC(N)=O)NC(C)=O", "note": "[SEQ ID NO. 24, Ac-QGA-NH-Ethyl] (Ac-Gln-Gly-Ala-NHEt)", "effectiveness in inhibiting PBL transmigration compared with PEPITEM (% Inhibition at 0.3 and/or 3 nM)": "more effective"}
    ]},
    {"system": "PBLs on cytokine stimulated HDBECs", "assay": "not given", "conditions": "compared to untreated PBL (PBL0); 20 ng/ml", "values": [
      {"compound": "SVTQAA [SEQ ID NO. 40]", "effect on PBL transmigration": "significant (p<0.01) fall in PBL transmigration"}
    ]}
  ]
}
